# Source: US20040127567A1, “Novel methods for treating disorders in which docosahexaenoic acid (DHA) levels are affected” (Beth Israel Deaconess Medical Center, Inc., priority 1998, published 2004)
# “Also recorded” adds a separate entry of the source.
# Experiments:
# Assay type in all cases: in vivo, mouse
# wild-type mice = experiment: Fatty acid levels (GC/MS) in pancreas and lung cells of wild-type mice fed n-3 fatty acids; details: for Change in phospholipid/membrane-bound AA (in words) / Change in phospholipid/membrane-bound DHA (in words): 40 mg/day for one week
# Experimental: Mouse pancreatic acinar and lung cell suspensions were prepared from wild type (n=3) and CFTR−/− mice (n=3) by enzymatic and mechanical dissociation. In addition, brain, kidney, heart, spleen, and blood were sonicated in 0.3M sucrose buffer. Membrane lipids were extracted from cell and organ preparations with 20 volumes of chloroform-methanol 2:1 (v/v), transmethylated with 0.5 mL of 0.1 N methanolic-NaOH/BF3 reagent, and the resulting fatty acid methyl esters analyzed by gas chromatography/mass spectrometry (GC/MS). In a different set of experiments, lipids were fractionated by aminopropyl column chromatography into triglycerides, cholesterol esters, and phosphoglycerides and the fatty acid composition of each lipid class determined by a combination of enzymatic hydrolysis, transmethylation, and GC/MS.
# Cystic fibrosis (UNC strain) and wild type mice (12-20 grams body weight) were fed with a complete liquid enteral formulation (Peptamen™, Nestle Clinical Nutrition, […], Springville, Utah). DHA content in the Neuromins formulation was 100 mg per 500 mg of formulation. […]
# […] The pellets (0.5 mL for pancreas cell homogenate and 0.6 mL for lung cell homogenate) were extracted with 3 mL of chloroform-methanol 2:1 (v/v). The resulting emulsion was vortexed, centrifuged at 800 g for 3 min., and the lower phase aspirated. The residual upper phase was partitioned again with 3 mL of chloroform-methanol 2:1 (v/v), the lower phase aspirated and both lower phases combined. Fractions were evaporated to dryness, processed for FAME and analyzed by GC-MS. Aliquots of 20 μL of 17:0 in chloroform-methanol 2:1 (v/v) were added to the samples before methylation.
# CFTR−/− mice were prepared as described in Example 1. Both CFTR−/− mice and wild type mice were euthanized with carbon dioxide, and cell suspensions from pancreas and lung isolated. Pancreatic acini were prepared by collagenase and mechanical dissociation (Bruzzone et al., (1985) Biochem. J. 226:621-624). A total lung cell suspension was prepared by first flushing contaminating blood by repeated injection of lung with Krebs Henseleit buffer (KHB). Tissue was then extensively minced and incubated for 30 minutes at 37° C. in 10 ml of KHB containing 1,000 units of collagenase (Worthington Biochemical, PA) 2,000 units of DNase, and 0.5 units of thermolysin (Sigma Chemical Co., St. Louis, Mo.). The resulting cell suspension was sedimented once through KHB containing 5% BSA and subsequently washed once in KHB, pH 7.4 containing 32 mM bicarbonate, 10 mM Hepes, and 0.5% BSA. Brain, kidney, and heart were removed and sonicated in 0.5 mL and 0.3M sucrose. A similar approach was used for duodenum and ileum except that mucosal scrapings were used for sonication.
# Since the pancreas and the lung are the two primary organs affected in cystic fibrosis, AA and DHA levels in cell preparations of these organs and in wild-type and CFTR−/− mice were quantitated by GC/MS analysis. Lipids were extracted from cell suspensions, tissue homogenates, and blood plasma with 6 volumes of chloroform-methanol (2:1, v/v). The resulting emulsions were centrifuged at 600 g for 3 min and the lower phase containing the lipids was collected. This procedure was repeated twice and the lower phases from the two extractions combined. Aliquots of 30 μL of heptadecanoic acid (17:0) (1 mg/ml) were added to the extracts and used as an internal standard.
# CFTR−/− mice [1] = experiment: Pancreatic morphology / luminal diameter in CFTR−/− mice; details: for Effect on pancreas morphology (in words): 40 mg/day for one week (fish oil: dose equivalent to 40 mg DHA, 60 mg EPA, 15 mg LNA), vs Peptamen alone
# Experimental: CF and WT mice were fed as outlined in the method section above. Dilation of the pancreatic duct lumen is a hallmark feature of cystic fibrosis. Therefore, the luminal area was measured from a minimum of 30 images from CF knockout mice treated with Peptamen™ alone or Peptamen™ plus 40 mg/day of DHA as well as wild type (WT) mice treated with Peptamen™ alone beginning at the time of weaning. Animals were sacrificed at 37 days of age and each pancreas fixed in glutaraldehyde. Analysis was performed using NIH Image software. The results are outlined in FIG. 1. […] No other treatment to date has shown tissue improvements at a morphological level.
# The morphology of various organs were also studied. Sample preparation were carried out as follows: 1-2 cm of ileum adjacent to the cecum was fixed in formalin, embedded in paraffin, cut in cross-section, and stained with hematoxylin/eosin. For pancreatic analyses, 2-3 mm pieces of pancreas were fixed for 1.5 h in 2% glutaraldehyde in 0.2M cacodylate buffer. Tissue samples were then washed in 0.2M cacodylate buffer and subsequently postfixed for 1 h in 1% osmium tetroxide in 0.1 M cacodylate buffer. Tissue was embedded in epon and thick sections stained with 1% toluidine blue.
# Morphometry: For measurement of ileal villus height or pancreatic luminal diameter, multiple images were randomly taken at 200× using a Nikon Microphot-SA microscope equipped with a Diagnostic Instruments, Inc., Spot Digitizing System. Images were examined in a blinded fashion by two independent observers. Quantitation was performed using NIH Imaging Software. The differences between the means in the groups tested were evaluated using the Student's t-test.
# Tissue samples from these mice were prepared for light microscopy and sections analyzed at 200×. Pancreatic acinar cell morphology of CFTR−/− control mice is characterized by massive luminal dilatation and zymogen granule accumulation at the apical pole of the acinar cells (data not shown), two hallmark features of cystic fibrosis pathology (W. V. L. Go. (1993) Pancreas: Biology, Pathobiology, and Disease, Chapter 54:1041-1081). […] Luminal diameter is approximately 9fold greater in CFTR−/− mice. […] There also appeared to be a decrease in ductal plugs DGA-fed CFTR−/− mice; however, this observation was not subjected to morphometric analysis.
# Additional experiments were performed to observe the effect of administering the DHA precursor docosapentaenoic acid (DPA,22:5n-3) on DHA levels. Wild-type and CFTR−/− mice were fed with 40 mg of DPA per day for 7 days and fatty acids in pancreas and lung analyzed by GC/MS. One to 2 mm pieces of pancreas from both wild-type and CFTR−/−were fixed for 1.5 h in […] in 0.2M cacodylate buffer and processed for morphometric analysis.
# CFTR−/− mice [2] = experiment: Fatty acid levels (GC/MS) in pancreas and lung cells of CFTR−/− mice fed n-3 fatty acids; details: for AA level in pancreas: CFTR-/- mice, 40 mg/day for one week (fish oil: dose equivalent to 40 mg DHA, 60 mg EPA, 15 mg LNA), mean ± S.D.
# [3] = WT mouse fed Peptamen supplemented with DHA
# [4] = wild-type mice, 40 mg DPA per day for 7 days
# [5] = CFTR (-/-) mice, 40 mg DPA per day for 7 days
# [6] = wild-type mice, listed as 18:3n-3
compound,measurement,setting,value
"CC/C=C\C/C=C\C/C=C\C/C=C\C/C=C\C/C=C\CCC(=O)O [DHA, docosahexaenoic acid]",20:4n-6 in lung,wild-type mice; [3],28 nmoles per total extract
same,20:4n-6 in pancreas,wild-type mice; [3],82 nmoles per total extract
same,22:4n-6 in lung,wild-type mice; [3],2 nmoles per total extract
same,22:4n-6 in pancreas,wild-type mice; [3],1.6 nmoles per total extract
same,22:6n-3 in lung,wild-type mice; [3],227 nmoles per total extract
same,22:6n-3 in pancreas,wild-type mice; [3],200 nmoles per total extract
same,Decrease in pancreatic luminal diameter,"CFTR−/− mice [1]; oral 40 mg/day for 7 days, p<0.0001, n=6",63%
same,AA level in pancreas,CFTR−/− mice [2],4.9 ± 1.8 nmol/mg
"CC/C=C\C/C=C\C/C=C\C/C=C\C/C=C\CCCCCC(=O)O [DPA, docosapentaenoic acid]",20:4n-6 in lung,wild-type mice; [4],7.8 ± 0.9 (17.5) nmoles of fatty acid per mg of protein
same,20:4n-6 in pancreas,wild-type mice; [4],6.8 ± 0.6 (13.3) nmoles of fatty acid per mg of protein
same,20:5n-3 in lung,wild-type mice; [4],8.6 ± 0.8 (0.07) nmoles of fatty acid per mg of protein
same,20:5n-3 in pancreas,wild-type mice; [4],7.5 ± 0.8 (0.07) nmoles of fatty acid per mg of protein
same,22:6n-3 in lung,wild-type mice; [4],7.5 ± 0.8 (4.0) nmoles of fatty acid per mg of protein
same,22:6n-3 in pancreas,wild-type mice; [4],2.5 ± 0.4 (1.5) nmoles of fatty acid per mg of protein
same,"Improvement in pancreas morphology (pancreatic ductal diameter, presence of plugs)",CFTR−/− mice [1]; 40 mg per day for 7 days,20%
same,20:5n-3 in pancreas,CFTR−/− mice [2]; [5],14.6 ± 1.1 (0.1) nmoles of fatty acid per mg of protein
same,22:6n-3 in pancreas,CFTR−/− mice [2]; [5],2.0 ± 0.4(1.5) nmoles of fatty acid per mg of protein
same,AA level in pancreas,CFTR−/− mice [2],5.1 ± 0.6 nmol/mg
"CC/C=C\C/C=C\C/C=C\CCCCCCCC(=O)O [LNA, α-linolenic acid, reference compound]",Change in phospholipid/membrane-bound AA (in words),wild-type mice; wild-type mice,decrease in membrane-bound AA
same,Change in phospholipid/membrane-bound DHA (in words),wild-type mice; wild-type mice,increase in membrane-bound DHA
same,Change in phospholipid/membrane-bound AA (in words),wild-type mice; [6],decrease in phospholipid-bound AA
same,Change in phospholipid/membrane-bound DHA (in words),wild-type mice; [6],increase in phospholipid-bound DHA
same,Effect on pancreas morphology (in words),CFTR−/− mice [1],significant increase in acinar lumen dilatation and plug formation; also recorded: significant increase in ductal dilatation; also recorded: increased acinar lumen dilation and plug formation
same,Effect on pancreas morphology (in words),CFTR−/− mice [1]; listed as 18:3n-3,worsening of the pathological changes in the pancreas
same,AA level in pancreas,CFTR−/− mice [2],5.5 ± 0.8 nmol/mg
